Results as given in ChEMBL document CHEMBL6114954, “Design, synthesis and cytotoxic activity of novel lipophilic cationic derivatives of diosgenin and sarsasapogenin” (Bioorg Med Chem Lett, 2025).
Activity calls are given as the source filed them. The calls are words filed in the database; no cut-off is given here.

What was measured:
MDA-MB-231 = experiment: Cytotoxicity against human MDA-MB-231 cells; type: functional, cell-based
A549 [1] = experiment: Cytotoxicity against human A549 cells; type: functional, cell-based
HepG2 = experiment: Cytotoxicity against human HepG2 cells; type: functional, cell-based
A549 [2] = experiment: Induction of apoptosis in human A549 cells assessed as apoptosis ratio at 1 uM incubated for 24 hrs by Annexin V-FITC/PI staining based flow cytometry (reference value: 4.38 %); type: functional
A549 [3] = experiment: Induction of mitochondrial membrane potential depolarization in human A549 cells at 2 uM by JC-1 staining based flow cytometry (reference value: 7.4 %); type: functional
A549 [4] = experiment: Induction of mitochondrial membrane potential depolarization in human A549 cells at 1 uM by JC-1 staining based flow cytometry (reference value: 7.4 %); type: functional
A549 [5] = experiment: Induction of cell cycle arrest in human A549 cells assessed as accumulation at G0/G1 phase at 1 to 4 uM incubated for 24 hrs by PI staining based flow cytometry; type: functional; details: dose 1-4 µM
A549 [6] = experiment: Induction of apoptosis in human A549 cells assessed as apoptosis ratio at 4 uM incubated for 24 hrs by Annexin V-FITC/PI staining based flow cytometry (reference value: 4.38 %); type: functional
A549 [7] = experiment: Induction of apoptosis in human A549 cells assessed as apoptosis ratio at 2 uM incubated for 24 hrs by Annexin V-FITC/PI staining based flow cytometry (reference value: 4.38 %); type: functional
A549 [8] = experiment: Induction of apoptosis in human A549 cells assessed as decrease in pro-caspase 3 level upto 4 microM by Western blot analysis; type: functional, cell-based
A549 [9] = experiment: Induction of intracellular ROS generation in human A549 cells incubated for 48 hrs by DCFH-DA staining based analysis; type: functional, cell-based; details: dose 1-4 µM
A549 [10] = experiment: Induction of apoptosis in human A549 cells assessed as increase in Bax level by Western blot analysis; type: functional, cell-based; details: dose <= 4.0 µM
A549 [11] = experiment: Induction of mitochondrial membrane potential depolarization in human A549 cells at 4 uM by JC-1 staining based flow cytometry (reference value: 7.4 %); type: functional
A549 [12] = experiment: Induction of apoptosis in human A549 cells assessed as decrease in Bcl-2 level by Western blot analysis; type: functional, cell-based; details: dose <= 4.0 µM

SMILES	IC50 (MDA-MB-231)	IC50 (A549 [1])	IC50 (HepG2)	also measured
CC[N+]1(CCCC(=O)O[C@H]2CC[C@@]3(C)[C@H](CC[C@@H]4[C@@H]3CC[C@]3(C)[C@@H]5[C@H](C[C@@H]43)O[C@]3(CCC(C)CO3)[C@H]5C)C2)CCCC1 (some centres not stated)	16.2 µM	15.4 µM	9.08 µM	
CC1CC[C@@]2(OC1)O[C@H]1C[C@H]3[C@@H]4CC[C@@H]5C[C@@H](OC(=O)CCC[P+](c6ccccc6)(c6ccccc6)c6ccccc6)CC[C@]5(C)[C@H]4CC[C@]3(C)[C@H]1[C@@H]2C (some centres not stated)	3.62 µM	1 µM	3.44 µM	
CC[N+]1(CCCC(=O)OC[C@H](C)CC[C@H]2O[C@H]3C[C@H]4[C@@H]5CC=C6C[C@@H](OC(C)=O)CC[C@]6(C)[C@H]5CC[C@]4(C)[C@H]3[C@@H]2C)CCOCC1	> 50 µM	17.4 µM	> 50 µM	
CC[N+]1(CCCC(=O)O[C@H]2CC[C@@]3(C)[C@H](CC[C@@H]4[C@@H]3CC[C@]3(C)[C@@H]5[C@H](C[C@@H]43)O[C@]3(CCC(C)CO3)[C@H]5C)C2)CCNCC1 (some centres not stated)	> 50 µM	26.1 µM	> 50 µM	
CC[N+]1(CCCC(=O)O[C@H]2CC[C@@]3(C)C(=CC[C@H]4[C@@H]5C[C@@H]6O[C@]7(CCC(C)CO7)[C@@H](C)[C@@H]6[C@@]5(C)CC[C@@H]43)C2)CCc2ccccc2C1 (some centres not stated)	20.6 µM	8.43 µM	18.8 µM	
C[C@@H]1CC[C@@]2(OC1)O[C@H]1C[C@H]3[C@@H]4CC=C5C[C@@H](O)CC[C@]5(C)[C@H]4CC[C@]3(C)[C@H]1[C@@H]2C [DISOGENIN]	> 50 µM		> 50 µM	
CC(=O)O[C@H]1CC[C@@]2(C)C(=CC[C@H]3[C@@H]4C[C@@H]5O[C@H](CC[C@@H](C)COC(=O)C[P+](c6ccccc6)(c6ccccc6)c6ccccc6)[C@@H](C)[C@@H]5[C@@]4(C)CC[C@@H]32)C1	32 µM	10.8 µM	25.4 µM	
CC[N+]1(CCCC(=O)O[C@H]2CC[C@@]3(C)[C@H](CC[C@@H]4[C@@H]3CC[C@]3(C)[C@@H]5[C@H](C[C@@H]43)O[C@]3(CCC(C)CO3)[C@H]5C)C2)CCOCC1 (some centres not stated)	34.8 µM	18.7 µM	22.6 µM	
CC[N+]1(CCCC(=O)O[C@H]2CC[C@@]3(C)[C@H](CC[C@@H]4[C@@H]3CC[C@]3(C)[C@@H]5[C@H](C[C@@H]43)O[C@]3(CCC(C)CO3)[C@H]5C)C2)CCc2ccccc2C1 (some centres not stated)	13.8 µM	10.8 µM	9.52 µM	
CC1CC[C@@]2(OC1)O[C@H]1C[C@H]3[C@@H]4CC[C@@H]5C[C@@H](OC(=O)CCCCC[P+](c6ccccc6)(c6ccccc6)c6ccccc6)CC[C@]5(C)[C@H]4CC[C@]3(C)[C@H]1[C@@H]2C (some centres not stated)	5.01 µM	1.3 µM	4.18 µM	
C[C@@H]1CC[C@@]2(OC1)O[C@H]1C[C@H]3[C@@H]4CC[C@@H]5C[C@@H](O)CC[C@]5(C)[C@H]4CC[C@]3(C)[C@H]1[C@@H]2C	> 50 µM	> 50 µM	> 50 µM	
CC(=O)O[C@H]1CC[C@@]2(C)C(=CC[C@H]3[C@@H]4C[C@@H]5O[C@H](CC[C@@H](C)COC(=O)CCCCC[P+](c6ccccc6)(c6ccccc6)c6ccccc6)[C@@H](C)[C@@H]5[C@@]4(C)CC[C@@H]32)C1	36.6 µM	5.63 µM	30.1 µM	
CC1CC[C@@]2(OC1)O[C@H]1C[C@H]3[C@@H]4CC=C5C[C@@H](OC(=O)CCC[P+](c6ccccc6)(c6ccccc6)c6ccccc6)CC[C@]5(C)[C@H]4CC[C@]3(C)[C@H]1[C@@H]2C.[Br-] (some centres not stated)	4.16 µM	0.95 µM	3.95 µM	Activity (A549 [2]): 8.51%; Activity (A549 [3]): 40.6%; Activity (A549 [4]): 17.4%; Activity (A549 [5]): Active; Activity (A549 [6]): 48.2%; Activity (A549 [7]): 23.95%; Activity (A549 [8]): Active; Activity (A549 [9]): Dose-dependent-effect; Activity (A549 [10]): Dose-dependent-effect; Activity (A549 [11]): 91.2%; Activity (A549 [12]): Dose-dependent-effect
CC[N+]1(CCCC(=O)O[C@H]2CC[C@@]3(C)C(=CC[C@H]4[C@@H]5C[C@@H]6O[C@]7(CCC(C)CO7)[C@@H](C)[C@@H]6[C@@]5(C)CC[C@@H]43)C2)CCOCC1 (some centres not stated)	41.6 µM	29.1 µM	27.9 µM	
